Test results: publication PMC9500072, “Topical application of an irreversible small molecule inhibitor of lysyl oxidases ameliorates skin scarring and fibrosis” (Nature Communications, 2022)
Where “and” joins values, the source holds several entries; their conditions need not be identical. Equal values may be shown once.

Key:
Dopamine D2S = Dopamine D2S (Homo sapiens, UniProt P14416); assay: Eurofins panel 219700; type: binding
Muscarinic M1 = Muscarinic M1 (Homo sapiens, UniProt P11229); assay: Eurofins panel 252610; type: binding
Adrenergic α1A = Adrenergic α1A (Rattus norvegicus, UniProt P43140); assay: Eurofins panel 203100; type: binding
[1] = biological target: Serotonin (5-Hydroxytryptamine) 5-HT2B (Homo sapiens, UniProt P41595); assay: Eurofins panel 271700; type: binding
Chain of Serotonin (5-Hydroxytryptamine) 5-HT2B (P41595 whole entry): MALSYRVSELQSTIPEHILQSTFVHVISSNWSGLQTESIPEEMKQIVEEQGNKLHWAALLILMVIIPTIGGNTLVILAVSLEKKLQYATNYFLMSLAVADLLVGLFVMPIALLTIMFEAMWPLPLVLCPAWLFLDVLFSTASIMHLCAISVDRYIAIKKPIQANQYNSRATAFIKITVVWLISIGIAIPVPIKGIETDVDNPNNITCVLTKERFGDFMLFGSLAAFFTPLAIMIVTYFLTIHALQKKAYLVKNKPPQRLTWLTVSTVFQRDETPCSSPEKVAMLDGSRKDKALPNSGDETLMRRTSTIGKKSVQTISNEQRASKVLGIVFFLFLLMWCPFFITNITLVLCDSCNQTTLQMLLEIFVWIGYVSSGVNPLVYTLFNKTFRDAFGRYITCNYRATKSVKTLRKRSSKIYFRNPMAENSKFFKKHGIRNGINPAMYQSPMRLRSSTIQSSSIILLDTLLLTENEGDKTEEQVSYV

[2] = tested on: full-thickness excision injury scar; assay: Murine excision injury model; type: in vivo, C57BL6/J mice
Description: Having established promising in vivo anti-fibrotic efficacy, we next evaluated a full-thickness excision injury model in mice. Full-thickness excision injuries of approximately 1.1 cm^2 (approximately 2% body surface area) of dorsal skin were created under anesthesia. From Day 2 post-injury, animals received daily application of 0, 0.5, or 1.5% PXS-6302 oil in water cream for 28 days. At the end of the experiment, all animals were euthanised and scar tissue analyzed for collagen and cross-link content. […] Therefore, when applied after injury and during the healing phase, PXS-6302 reduced collagen crosslinking and total collagen deposition in the scar. Reassuringly, the efficacy of PXS-6302 was in line with earlier studies (performed with the first-generation inhibitor, PXS-4787, Supplementary Fig. S7) albeit with what appears to be a more comprehensive impact on crosslinking at a lower dose.
Cell pellets or isolated tissue samples were completely hydrolyzed in 1.5 mL 6 M hydrochloric acid for 24 h at 105 °C. After complete hydrolysis, samples were dried using a vacuum dryer and reconstituted using 200 µL MilliQ water. The sample clean-up was performed using solid-phase extraction method which uses C18 and SCX solid-phase extraction cartridges for sample purification. The samples were run on UPLC-MS-MS (Mass Spectrometer: Thermo Scientific TSQ Endura Triple quadrupole, UPLC: Thermo Scientific Dionex UltiMate 3000) using Agilent RRHD SB-C18,2.1x50mm,1.8um analytical column and solvent A: 10 mM ammonium formate, 0.1% formic acid, 0.1% HFBA in H2O and solvent B: 10 mM ammonium formate, 0.1% formic acid, 0.1% HFBA in MeOH and analyzed as previously described. Limits of detection are listed in Supplementary Table S4.
Nine-week-old C57BL6/J female mice (n = 8 per group) received a full-thickness excision injury of 1.1 cm^2 on dorsal area using a circular 12-mm biopsy punch (Acu-Punch, Badand Medical, P1250) (approximately 2% body surface area) under anesthesia. All animals received intramuscular injection of buprenorphine (0.1 mg/kg) as an analgesia. Paracetamol (1 mg/ml) was provided for 5 days post-injury in drinking water. Animals were allowed to recover for 24 h post-injury. Animals in the treatment group received twice a day application of 3% PXS-4787 cream for 28 days. For PXS-6302, once per day application of 1.5% concentration cream was used. At the end of the experiment, all animals were euthanised using an intraperitoneal injection of pentobarbitone (160 mg Kg-1) under Isoflurane anesthesia, and scar tissues were removed. The scar skin was fixed in 4% paraformaldehyde overnight at 4 °C. After fixation, tissues were washed in sterile PBS at room temperature. Samples were processed in Leica ASP300S Tissue Processor followed by embedding in paraffin blocks using tissue processor (Leica EG1150 modular tissue embedding center). The paraffin blocks were sectioned at 5 µm thickness using a wax microtome (fully automated Leica RM2255). For standard histology, the skin sections were stained with hematoxylin and eosin stain and Masson’s Trichrome stain. The stained sections were used to determine the collagen fiber orientation in the control and treatment specimens. All stained skin tissue sections were processed for whole slide imaging using a ScanScopeXT (Aperio Technologies, USA) at 20-x magnification. The digital images were collected and analyzed using ImageScope software (Aperio Techologies, Inc, USA). A piece of excised mouse scar tissue was processed for the collagen crosslinks extraction. The scar skin was weighed and homogenized in 900 µL PBS (FastPrep-24TM5G(MP) homogenizer). The tissue homogenate equivalent to 10 mg tissue was transferred to heat/acid resistant screw cap tube (VWR 16466-060) and the total volume of 870 µL was adjusted with PBS. The tissue homogenate was reduced with a Sodium borohydride buffer and processed for cross-link extraction protocol as mentioned in previous section.

[3] = tested on: GABAA, Flunitrazepam, Central; assay: Eurofins panel 226600; type: binding, rat
Sodium Channel, Site 2 = assay: Eurofins panel 279510; type: binding, rat
Adrenergic α2A = Adrenergic α2A (Homo sapiens, UniProt P08913); assay: Eurofins panel 203630; type: binding
Chain of Adrenergic α2A (P08913 whole entry): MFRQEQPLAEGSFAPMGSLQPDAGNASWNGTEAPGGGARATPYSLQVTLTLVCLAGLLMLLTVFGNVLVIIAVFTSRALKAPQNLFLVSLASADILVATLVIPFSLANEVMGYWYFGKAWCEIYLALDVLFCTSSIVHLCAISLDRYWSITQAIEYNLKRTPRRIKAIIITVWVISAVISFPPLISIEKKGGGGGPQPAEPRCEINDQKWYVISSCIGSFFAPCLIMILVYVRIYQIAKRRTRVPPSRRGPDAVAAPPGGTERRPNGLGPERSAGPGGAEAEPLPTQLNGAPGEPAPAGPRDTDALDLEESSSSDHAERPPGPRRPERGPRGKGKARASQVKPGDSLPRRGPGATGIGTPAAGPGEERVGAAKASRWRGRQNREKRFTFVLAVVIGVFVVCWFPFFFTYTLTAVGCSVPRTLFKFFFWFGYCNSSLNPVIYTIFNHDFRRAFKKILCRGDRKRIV

Opiate µ(OP3, MOP) = Opiate µ(OP3, MOP) (Homo sapiens, UniProt P35372); assay: Eurofins panel 260410; type: binding
Chain of Opiate µ(OP3, MOP) (P35372 whole entry): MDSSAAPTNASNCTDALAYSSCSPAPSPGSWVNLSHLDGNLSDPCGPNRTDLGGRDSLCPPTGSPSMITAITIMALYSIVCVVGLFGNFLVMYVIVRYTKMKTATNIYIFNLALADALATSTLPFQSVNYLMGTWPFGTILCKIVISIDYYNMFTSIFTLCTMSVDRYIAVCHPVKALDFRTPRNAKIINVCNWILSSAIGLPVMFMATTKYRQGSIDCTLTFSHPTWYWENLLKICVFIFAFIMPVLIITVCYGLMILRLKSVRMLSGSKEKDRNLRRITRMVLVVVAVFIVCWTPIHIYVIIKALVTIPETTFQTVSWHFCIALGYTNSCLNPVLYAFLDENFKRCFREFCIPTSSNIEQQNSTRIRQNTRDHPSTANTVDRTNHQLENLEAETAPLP

Muscarinic M2 = Muscarinic M2 (Homo sapiens, UniProt P08172); assay: Eurofins panel 252710; type: binding
Chain of Muscarinic M2 (P08172 whole entry): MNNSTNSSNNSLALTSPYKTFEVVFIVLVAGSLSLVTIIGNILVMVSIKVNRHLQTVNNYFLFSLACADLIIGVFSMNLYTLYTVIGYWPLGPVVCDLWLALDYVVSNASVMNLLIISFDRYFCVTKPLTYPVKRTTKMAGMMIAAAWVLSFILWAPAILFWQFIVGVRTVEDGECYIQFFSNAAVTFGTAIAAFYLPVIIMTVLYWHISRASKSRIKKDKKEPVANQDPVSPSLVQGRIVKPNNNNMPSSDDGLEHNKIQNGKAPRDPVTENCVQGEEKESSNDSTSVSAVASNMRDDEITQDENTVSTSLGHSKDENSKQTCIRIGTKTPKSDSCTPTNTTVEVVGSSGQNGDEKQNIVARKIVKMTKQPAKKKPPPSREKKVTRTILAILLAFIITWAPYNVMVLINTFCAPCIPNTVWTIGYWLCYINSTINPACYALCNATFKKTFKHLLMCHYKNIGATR

[4] = biological target: Serotonin (5-Hydroxytryptamine) 5-HT3 (Homo sapiens, UniProt P46098); assay: Eurofins panel 271910; type: binding
Chain of Serotonin (5-Hydroxytryptamine) 5-HT3 (P46098 24-478): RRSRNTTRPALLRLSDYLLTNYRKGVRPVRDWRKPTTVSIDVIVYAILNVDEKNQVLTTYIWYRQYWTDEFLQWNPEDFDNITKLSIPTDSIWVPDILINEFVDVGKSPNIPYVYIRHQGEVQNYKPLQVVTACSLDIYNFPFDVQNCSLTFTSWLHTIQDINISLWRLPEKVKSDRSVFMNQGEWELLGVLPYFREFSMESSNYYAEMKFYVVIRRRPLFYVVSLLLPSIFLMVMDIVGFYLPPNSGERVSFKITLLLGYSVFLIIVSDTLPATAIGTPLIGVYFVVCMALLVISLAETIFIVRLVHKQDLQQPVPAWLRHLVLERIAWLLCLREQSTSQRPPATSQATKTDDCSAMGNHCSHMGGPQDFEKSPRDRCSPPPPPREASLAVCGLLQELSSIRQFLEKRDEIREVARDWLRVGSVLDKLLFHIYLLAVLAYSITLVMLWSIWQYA

[5] = biological target: Transporter, Norepinephrine (NET) (Homo sapiens, UniProt P23975); assay: Eurofins panel 204410; type: binding
Dopamine D1 = Dopamine D1 (Homo sapiens, UniProt P21728); assay: Eurofins panel 219500; type: binding
Chain of Dopamine D1 (P21728 whole entry): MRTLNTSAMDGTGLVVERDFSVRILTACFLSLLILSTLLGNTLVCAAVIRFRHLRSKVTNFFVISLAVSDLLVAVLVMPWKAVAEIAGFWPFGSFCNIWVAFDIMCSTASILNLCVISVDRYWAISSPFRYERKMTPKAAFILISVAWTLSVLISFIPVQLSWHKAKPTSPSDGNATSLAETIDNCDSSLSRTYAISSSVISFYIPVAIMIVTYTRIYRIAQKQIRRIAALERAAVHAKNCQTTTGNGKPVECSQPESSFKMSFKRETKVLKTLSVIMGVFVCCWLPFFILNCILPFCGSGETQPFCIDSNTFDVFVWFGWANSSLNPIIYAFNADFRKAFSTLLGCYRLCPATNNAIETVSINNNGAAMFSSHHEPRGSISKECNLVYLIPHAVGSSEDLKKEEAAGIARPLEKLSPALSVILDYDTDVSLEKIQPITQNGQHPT

Adenosine A2A = Adenosine A2A (Homo sapiens, UniProt P29274); assay: Eurofins panel 200610; type: binding
Chain of Adenosine A2A (P29274 whole entry): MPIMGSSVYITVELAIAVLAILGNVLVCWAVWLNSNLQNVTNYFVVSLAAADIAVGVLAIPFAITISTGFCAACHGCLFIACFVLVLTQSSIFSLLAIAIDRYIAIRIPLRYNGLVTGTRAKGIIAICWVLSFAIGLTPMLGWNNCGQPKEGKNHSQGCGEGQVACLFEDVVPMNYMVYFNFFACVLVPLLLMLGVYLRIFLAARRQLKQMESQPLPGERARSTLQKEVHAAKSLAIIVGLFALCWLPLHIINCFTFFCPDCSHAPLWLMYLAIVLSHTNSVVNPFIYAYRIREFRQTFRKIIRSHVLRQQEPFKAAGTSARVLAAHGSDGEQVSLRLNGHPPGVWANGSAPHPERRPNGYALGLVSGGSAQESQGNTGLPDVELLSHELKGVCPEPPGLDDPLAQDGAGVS

Adrenergic β1 = Adrenergic β1 (Homo sapiens, UniProt P08588); assay: Eurofins panel 204010; type: binding
Chain of Adrenergic β1 (P08588 whole entry): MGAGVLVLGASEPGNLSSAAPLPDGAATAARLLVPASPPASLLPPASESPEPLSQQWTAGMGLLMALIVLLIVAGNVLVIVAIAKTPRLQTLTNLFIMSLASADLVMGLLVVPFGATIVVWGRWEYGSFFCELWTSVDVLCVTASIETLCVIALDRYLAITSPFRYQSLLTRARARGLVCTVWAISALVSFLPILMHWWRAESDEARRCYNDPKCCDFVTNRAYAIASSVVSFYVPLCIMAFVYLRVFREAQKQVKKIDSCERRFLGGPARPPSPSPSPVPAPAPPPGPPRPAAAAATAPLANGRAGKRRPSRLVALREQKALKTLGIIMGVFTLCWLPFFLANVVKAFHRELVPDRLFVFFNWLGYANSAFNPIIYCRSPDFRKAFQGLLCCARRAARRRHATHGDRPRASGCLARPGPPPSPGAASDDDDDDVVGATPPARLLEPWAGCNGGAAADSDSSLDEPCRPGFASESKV

Glutamate, NMDA, Agonism = assay: Eurofins panel 232810; type: binding, rat
[6] = tested on: Calcium Channel L-Type, Dihydropyridine; assay: Eurofins panel 214600; type: binding, rat
[7] = biological target: Serotonin (5-Hydroxytryptamine) 5-HT1A (Homo sapiens, UniProt P08908); assay: Eurofins panel 271110; type: binding
Chain of Serotonin (5-Hydroxytryptamine) 5-HT1A (P08908 whole entry): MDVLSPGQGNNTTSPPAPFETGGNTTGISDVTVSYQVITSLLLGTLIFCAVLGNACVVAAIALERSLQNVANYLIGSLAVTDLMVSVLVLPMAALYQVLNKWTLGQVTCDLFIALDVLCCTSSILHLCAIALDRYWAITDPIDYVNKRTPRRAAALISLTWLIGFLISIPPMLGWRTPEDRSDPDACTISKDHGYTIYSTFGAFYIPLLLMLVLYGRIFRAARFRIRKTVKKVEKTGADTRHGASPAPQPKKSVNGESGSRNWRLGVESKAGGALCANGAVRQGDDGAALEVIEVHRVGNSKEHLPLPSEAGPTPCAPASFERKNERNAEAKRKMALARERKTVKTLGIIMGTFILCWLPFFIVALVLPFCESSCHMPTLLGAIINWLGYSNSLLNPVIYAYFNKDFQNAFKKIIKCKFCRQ

[8] = biological target: Transporter, Dopamine (DAT) (Homo sapiens, UniProt Q01959); assay: Eurofins panel 220320; type: binding
Cannabinoid CB1 = Cannabinoid CB1 (Homo sapiens, UniProt P21554); assay: Eurofins panel 217030; type: binding
Chain of Cannabinoid CB1 (P21554 whole entry): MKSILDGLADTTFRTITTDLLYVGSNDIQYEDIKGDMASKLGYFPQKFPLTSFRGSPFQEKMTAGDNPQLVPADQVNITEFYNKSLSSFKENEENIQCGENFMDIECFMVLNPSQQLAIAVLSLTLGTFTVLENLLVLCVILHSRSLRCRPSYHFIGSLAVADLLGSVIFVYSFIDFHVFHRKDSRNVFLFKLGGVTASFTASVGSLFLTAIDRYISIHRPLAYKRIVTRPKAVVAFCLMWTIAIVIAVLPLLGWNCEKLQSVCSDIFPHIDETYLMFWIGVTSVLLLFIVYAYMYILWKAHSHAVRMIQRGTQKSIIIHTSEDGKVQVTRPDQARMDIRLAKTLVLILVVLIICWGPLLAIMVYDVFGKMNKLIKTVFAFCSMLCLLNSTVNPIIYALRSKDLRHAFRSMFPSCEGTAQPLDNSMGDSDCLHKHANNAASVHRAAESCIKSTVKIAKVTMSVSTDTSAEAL

Muscarinic M3 = Muscarinic M3 (Homo sapiens, UniProt P20309); assay: Eurofins panel 252810; type: binding
[9] = 3% PXS-4787, individual samples
[10] = 0.5 or […] cream daily for 28 days

Chain of Dopamine D2S (P14416 1-414 isoform P14416-2): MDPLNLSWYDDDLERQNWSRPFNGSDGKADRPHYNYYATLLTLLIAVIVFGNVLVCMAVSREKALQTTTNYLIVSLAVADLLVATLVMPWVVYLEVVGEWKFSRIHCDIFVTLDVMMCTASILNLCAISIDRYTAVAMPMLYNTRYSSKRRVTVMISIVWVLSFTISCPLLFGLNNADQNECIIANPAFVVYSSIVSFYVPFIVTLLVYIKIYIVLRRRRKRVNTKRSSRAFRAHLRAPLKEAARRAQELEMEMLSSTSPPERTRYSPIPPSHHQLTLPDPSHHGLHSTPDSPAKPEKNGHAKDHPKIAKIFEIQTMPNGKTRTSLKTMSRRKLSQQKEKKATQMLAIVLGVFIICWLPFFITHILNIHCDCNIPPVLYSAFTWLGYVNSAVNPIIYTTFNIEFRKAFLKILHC

NC/C=C(\F)CS(=O)(=O)c1ccccc1 [PXS-4787]
inhibition at 10 µM (Dopamine D2S; 10 µM): 13% | inhibition at 10 µM (Muscarinic M1; 10 µM): 56% | inhibition at 10 µM (Adrenergic α1A; 10 µM): 1% | inhibition at 10 µM ([1]; 10 µM): 21% | DLHNL [2, 9]: 32.598 pmol/mg tissue and 48.992 pmol/mg tissue and 38.94 pmol/mg tissue and 30.0045 pmol/mg tissue and 38.524 pmol/mg tissue and 51.535 pmol/mg tissue and 45.099 pmol/mg tissue and 36.456 pmol/mg tissue and 45.26 pmol/mg tissue | DPD [2, 9]: 0.2026 pmol/mg tissue and 0.9604 pmol/mg tissue and 0.9521 pmol/mg tissue and 0.3416 pmol/mg tissue and 0.3259 pmol/mg tissue and 0.4694 pmol/mg tissue and 0.5793 pmol/mg tissue and 0.3046 pmol/mg tissue | HLNL [2, 9]: 11.709 pmol/mg tissue and 8.873 pmol/mg tissue and 7.946 pmol/mg tissue and 7.092 pmol/mg tissue and 8.4919 pmol/mg tissue and 8.338 pmol/mg tissue and 7.8195 pmol/mg tissue and 7.455 pmol/mg tissue | HYP [2, 9]: 8529.4 pmol/mg tissue and 13422.8 pmol/mg tissue and 10345 pmol/mg tissue and 7129.2 pmol/mg tissue and 10620.5 pmol/mg tissue and 15497 pmol/mg tissue and 11840.8 pmol/mg tissue and 10529.6 pmol/mg tissue and 12893.7 pmol/mg tissue | PYD [2, 9]: 3.941 pmol/mg tissue and 2.065 pmol/mg tissue and 3.401 pmol/mg tissue and 3.561 pmol/mg tissue and 3.481 pmol/mg tissue and 3.75 pmol/mg tissue and 2.469 pmol/mg tissue and 2.034 pmol/mg tissue | collagen cross-links formation in mouse scar ([2]; 3% cream for 28 days): Reduced | % Inh. ([3]; 10 µM): -1% | % Inh. (Sodium Channel, Site 2; 10 µM): 13% | inhibition at 10 µM (Adrenergic α2A; 10 µM): 1% | inhibition at 10 µM (Opiate µ(OP3, MOP); 10 µM): 3% | inhibition at 10 µM (Muscarinic M2; 10 µM): 7% | inhibition at 10 µM ([4]; 10 µM): 6% | inhibition at 10 µM ([5]; 10 µM): 24% | inhibition at 10 µM (Dopamine D1; 10 µM): 3% | inhibition at 10 µM (Adenosine A2A; 10 µM): 15% | inhibition at 10 µM (Adrenergic β1; 10 µM): -3% | % Inh. (Glutamate, NMDA, Agonism; 10 µM): 2% | % Inh. ([6]; 10 µM): -4% | inhibition at 10 µM ([7]; 10 µM): 0% | inhibition at 10 µM ([8]; 10 µM): 6% | inhibition at 10 µM (Cannabinoid CB1; 10 µM): 8% | inhibition at 10 µM (Muscarinic M3; 10 µM): 27%

NC/C=C(\F)C(F)(F)S(=O)(=O)c1ccccc1 [PXS-6302]
inhibition at 30 µM (Dopamine D2S; read-out: % Inh.): 13% | inhibition at 30 µM (Muscarinic M1; read-out: % Inh.): 13% | inhibition at 30 µM (Adrenergic α1A; read-out: % Inh.): 3% | inhibition at 30 µM ([1]; read-out: % Inh.): 63% | DHLNL ([2]; 0.5%, individual animals): 67.3445 pmol/mg protein and 104.493 pmol/mg protein and 49.564 pmol/mg protein and 93.5833 pmol/mg protein and 114.502 pmol/mg protein and 104.151 pmol/mg protein and 87.6663 pmol/mg protein and 102.971 pmol/mg protein | DPD ([2]; 0.5%, individual animals): 0.09524 pmol/mg protein and 0.2563 pmol/mg protein and 0.2515 pmol/mg protein and 0.4184 pmol/mg protein and 0.4492 pmol/mg protein and 0.4037 pmol/mg protein and 0.2113 pmol/mg protein and 0.2885 pmol/mg protein | HLNL ([2]; 0.5%, individual animals): 0.7003 pmol/mg protein and 0.9861 pmol/mg protein and 0.7921 pmol/mg protein and 1.215 pmol/mg protein and 1.527 pmol/mg protein and 1.179 pmol/mg protein and 1.122 pmol/mg protein and 0.9282 pmol/mg protein | HYP ([2]; 0.5%, individual animals): 135437 pmol/mg protein and 169286 pmol/mg protein and 127310 pmol/mg protein and 207537 pmol/mg protein and 183083 pmol/mg protein and 195703 pmol/mg protein and 151852 pmol/mg protein and 169426 pmol/mg protein | PYD ([2]; 0.5%, individual animals): 1.932 pmol/mg protein and 5.635 pmol/mg protein and 3.784 pmol/mg protein and 5.7092 pmol/mg protein and 5.347 pmol/mg protein and 5.273 pmol/mg protein and 4.615 pmol/mg protein and 4.89 pmol/mg protein | hydroxyproline concentration in scar [2, 10]: dose-dependent reduction | mature and immature crosslinks in scar [2, 10]: dose-dependently diminished | % Inh. ([3]; 30 µM): 4% | % Inh. (Sodium Channel, Site 2; 30 µM): 66% | inhibition at 30 µM (Adrenergic α2A; read-out: % Inh.): 17% | inhibition at 30 µM (Opiate µ(OP3, MOP); read-out: % Inh.): 12% | inhibition at 30 µM (Muscarinic M2; read-out: % Inh.): 16% | inhibition at 30 µM ([4]; read-out: % Inh.): 6% | inhibition at 30 µM ([5]; read-out: % Inh.): 55% | inhibition at 30 µM (Dopamine D1; read-out: % Inh.): 0% | inhibition at 30 µM (Adenosine A2A; read-out: % Inh.): -6% | inhibition at 30 µM (Adrenergic β1; read-out: % Inh.): 4% | % Inh. (Glutamate, NMDA, Agonism; 30 µM): -16% | % Inh. ([6]; 30 µM): 2% | inhibition at 30 µM ([7]; read-out: % Inh.): 3% | inhibition at 30 µM ([8]; read-out: % Inh.): 50% | inhibition at 30 µM (Cannabinoid CB1; read-out: % Inh.): 4% | inhibition at 30 µM (Muscarinic M3; read-out: % Inh.): 15%
